# Measurements: PubChem BioAssay (NCI)
#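 Test compounds were applied to cells in 96-well plates for 48 hours at 5 doses. The concentration for 50% growth inhibition is given as GI50. The concentration for full growth arrest is given as TGI.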
# Key:
# Assay in all cases: NCI tumour cell line growth inhibition, 48 h
# [1] = test system: 786-0 renal
# [2] = test system: A498 renal
# [3] = test system: A549 NSCLC
# [4] = test system: ACHN renal
# [5] = test system: BT-549 breast
# [6] = test system: CAKI-1 renal
# [7] = test system: CCRF-CEM leukemia
# [8] = test system: COLO 205 colon
# [9] = test system: DU-145 prostate
# [10] = test system: EKVX NSCLC
# [11] = test system: HCC-2998 colon
# [12] = test system: HCT-116 colon
# [13] = test system: HCT-15 colon
# [14] = test system: HL-60(TB) leukemia
# [15] = test system: HOP-62 NSCLC
# [16] = test system: HOP-92 NSCLC
# [17] = test system: HS 578T breast
# [18] = test system: HT29 colon
# [19] = test system: IGROV1 ovarian
# [20] = test system: K-562 leukemia
# [21] = test system: KM12 colon
# [22] = test system: LOX IMVI melanoma
# [23] = test system: M14 melanoma
# [24] = test system: MALME-3M melanoma
# [25] = test system: MCF7 breast
# [26] = test system: MDA-MB-231 breast
# [27] = test system: MDA-MB-435
# [28] = test system: MOLT-4 leukemia
structure (smiles),measurement,setting,value
O=C1C(N2CCN(c3ccccc3)CC2)=C(Cl)C(=O)c2ncccc21,GI50,[1],6.43 µM
same,TGI,[1],18.8 µM
same,GI50,[2],13.5 µM
same,TGI,[2],34 µM
same,GI50,[3],16.5 µM
same,TGI,[3],32.6 µM
same,GI50,[4],2.21 µM
same,TGI,[4],5.8 µM
same,GI50,[5],10.2 µM
same,TGI,[5],21.8 µM
same,GI50,[6],5.5 µM
same,TGI,[6],18.2 µM
same,GI50,[7],2.33 µM
same,TGI,[7],6.65 µM
same,GI50,[8],4.53 µM
same,TGI,[8],17.1 µM
same,GI50,[9],11.3 µM
same,TGI,[9],23.6 µM
same,GI50,[10],1.73 µM
same,TGI,[10],3.38 µM
same,GI50,[11],12 µM
same,TGI,[11],24.9 µM
same,GI50,[12],1.73 µM
same,TGI,[12],3.11 µM
same,GI50,[13],2.08 µM
same,TGI,[13],6.22 µM
same,GI50,[14],1.36 µM
same,TGI,[14],3.94 µM
same,GI50,[15],17.3 µM
same,TGI,[15],31.4 µM
same,GI50,[16],1.49 µM
same,TGI,[16],2.93 µM
same,GI50,[17],13.6 µM
same,TGI,[17],47.4 µM
same,GI50,[18],12 µM
same,TGI,[18],27.3 µM
same,GI50,[19],3.48 µM
same,TGI,[19],12.3 µM
same,GI50,[20],2.04 µM
same,TGI,[20],5.51 µM
same,GI50,[21],20.7 µM
same,TGI,[21],43.6 µM
same,GI50,[22],1.59 µM
same,TGI,[22],3.07 µM
same,GI50,[23],3.92 µM
same,TGI,[23],14.7 µM
same,GI50,[24],1.95 µM
same,TGI,[24],4.25 µM
same,GI50,[25],1.65 µM
same,TGI,[25],3.6 µM
same,GI50,[26],1.68 µM
same,TGI,[26],3.21 µM
same,GI50,[27],1.77 µM
same,TGI,[27],3.29 µM
same,GI50,[28],1.97 µM
same,TGI,[28],5.38 µM
